Tested on: K12877-001-R-J1-PDC complex spheroid viability
Experiment: Anticancer human tumor K12877-001-R-J1-PDC patient-derived lung adenocarcinoma cell line growth inhibition [RAS]
Conditions: for IC50: curve of first compound; for viability, T/C: stronger effect = lower value; active = viability on the fitted dose curve at most 10% of control; inactive = the rest
In short: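 Agents were tested in combination matrices in half-log decrements from a top concentration at or near clinical Cmax (10 microM if undetermined). Targets were multi-cell spheroids of tumour lines plus HUVEC and MSC stromal cells.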
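Note: spheroids exposed to agents for one week before readout.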
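Throughout, for viability, T/C: tumour cells co-cultured with HUVEC and mesenchymal stem cells in spheroids.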

CC(=O)OC12COC1CC(O)C1(C)C(=O)C(O)C3=C(C)C(OC(=O)C(O)C(NC(=O)OC(C)(C)C)c4ccccc4)CC(O)(C(OC(=O)c4ccccc4)C21)C3(C)C (configuration not stated) + CCn1c(-c2cccnc2C(C)OC)c2c3cc(ccc31)N1CCOC(CC(NC(=O)C(C(C)C)N(C)C(=O)C3(F)CCN(C(=O)C#CC(C)(C)N(C)C)CC3)C(=O)N3CCCC(N3)C(=O)OCC(C)(C)C2)C1
active: viability, T/C (second compound 0.000949 µM, first compound 0.0316 µM) 4.23% | viability, T/C (second compound 0.000949 µM, first compound 0.1 µM) 2.96% | viability, T/C (second compound 0.000949 µM, first compound 0.316 µM) 3.64% | viability, T/C (second compound 0.000949 µM, first compound 1 µM) 3.51% | viability, T/C (second compound 0.000949 µM, first compound 3.16 µM) 3.12% | viability, T/C (second compound 0.000949 µM, first compound 10 µM) 6.19% | viability, T/C (second compound 0.003 µM, first compound 0.0316 µM) 4.57% | viability, T/C (second compound 0.003 µM, first compound 0.1 µM) 3.08% | viability, T/C (second compound 0.003 µM, first compound 0.316 µM) 3.09% | viability, T/C (second compound 0.003 µM, first compound 1 µM) 2.71% | viability, T/C (second compound 0.003 µM, first compound 3.16 µM) 3.37% | viability, T/C (second compound 0.003 µM, first compound 10 µM) 6.21% | viability, T/C (second compound 0.00949 µM, first compound 0.0316 µM) 3.31% | viability, T/C (second compound 0.00949 µM, first compound 0.1 µM) 2.69% | viability, T/C (second compound 0.00949 µM, first compound 0.316 µM) 2.28% | viability, T/C (second compound 0.00949 µM, first compound 1 µM) 2.12% | viability, T/C (second compound 0.00949 µM, first compound 3.16 µM) 2.87% | viability, T/C (second compound 0.00949 µM, first compound 10 µM) 5.23% | viability, T/C (second compound 0.03 µM, first compound 0.0316 µM) 3.32% | viability, T/C (second compound 0.03 µM, first compound 0.1 µM) 2.79% | viability, T/C (second compound 0.03 µM, first compound 0.316 µM) 2.34% | viability, T/C (second compound 0.03 µM, first compound 1 µM) 2.42% | viability, T/C (second compound 0.03 µM, first compound 3.16 µM) 2.51% | viability, T/C (second compound 0.03 µM, first compound 10 µM) 5.78% | viability, T/C (second compound 0.0949 µM, first compound 0.0316 µM) 2.88% | viability, T/C (second compound 0.0949 µM, first compound 0.1 µM) 2.42% | viability, T/C (second compound 0.0949 µM, first compound 0.316 µM) 2.13% | viability, T/C (second compound 0.0949 µM, first compound 1 µM) 2.21% | viability, T/C (second compound 0.0949 µM, first compound 3.16 µM) 2.11% | viability, T/C (second compound 0.0949 µM, first compound 10 µM) 4.05% | viability, T/C (second compound 0.3 µM, first compound 0.0316 µM) 3.02% | viability, T/C (second compound 0.3 µM, first compound 0.1 µM) 2.23% | viability, T/C (second compound 0.3 µM, first compound 0.316 µM) 2.13% | viability, T/C (second compound 0.3 µM, first compound 1 µM) 1.55% | viability, T/C (second compound 0.3 µM, first compound 3.16 µM) 1.93% | viability, T/C (second compound 0.3 µM, first compound 10 µM) 3.39%
< 0.0316 µM: IC50 (second compound 0.000949 µM) | IC50 (second compound 0.003 µM) | IC50 (second compound 0.00949 µM) | IC50 (second compound 0.03 µM) | IC50 (second compound 0.0949 µM) | IC50 (second compound 0.3 µM)
